Data published in ChEMBL document CHEMBL1681704, “Design and synthesis of novel allosteric MEK inhibitor CH4987655 as an orally available anticancer agent” (Bioorg Med Chem Lett, 2011).
pIC50: −log10 of the molar value. Converted amounts (≈) assume the structure as drawn. The source made the active and inactive calls. No cut-off for these calls is given here.

Tests used:
[1] = Half life in cynomolgus monkey at 6 mg/kg, po; type: ADME, organism-based, Macaca fascicularis; design: dose 6 mg/kg, route oral; conditions: in vivo
[2] = Tmax in cynomolgus monkey at 6 mg/kg, po; type: ADME, organism-based, Macaca fascicularis; design: dose 6 mg/kg, route oral; conditions: in vivo
[3] = Cmax in cynomolgus monkey at 6 mg/kg, po; type: ADME, organism-based, Macaca fascicularis; design: dose 6 mg/kg, route oral; conditions: in vivo
Brain = assay: Inhibition of MEK in human HT-29 cells xenografted in BALB/c nu/nu mouse brain assessed as phosphorylated ERK level at maximum tolerable dose administered as po; type: functional, cell-based
HT-29 [4] = assay: Inhibition of MEK in human HT-29 cells xenografted in BALB/c nu/nu mouse tumor assessed as phosphorylated ERK level at maximum tolerable dose administered as po; type: functional, cell-based; conditions: Neoplasm
[5] = MRT (infinity) in cynomolgus monkey at 6 mg/kg, po; type: ADME, organism-based, Macaca fascicularis; design: dose 6 mg/kg, route oral; conditions: in vivo
[6] = AUC (infinity) in cynomolgus monkey at 6 mg/kg, po; type: ADME, organism-based, Macaca fascicularis; design: time infinity, dose 6 mg/kg, route oral; conditions: plasma
Cynomolgus monkey = assay: In vivo metabolic stability in cynomolgus monkey assessed as plasma concentration at 2 mg/kg, po; type: ADME, organism-based, Macaca fascicularis; design: dose 2 mg/kg, route oral
[7] = Toxicity in human HT-29 cells xenografted BALB/c nu/nu mouse assessed as maximum tolerable dose; type: organism-based; conditions: in vivo
[8] = Half life in human liver microsomes at 1 uM; type: ADME, Microsome
QG-56 = assay: Cytotoxicity against human QG56 cells after 4 days; type: functional, cell-based; conditions: QG-56, 96 h
[9] = Inhibition of MEK after 30 mins
[10] = Half life in mouse liver microsomes at 1 uM; type: ADME, Microsome
HT-29 [11] = assay: Antitumor activity against human HT-29 cells xenografted in BALB/c nu/nu mouse assessed as tumor growth inhibition at maximum tolerable dose administered as po qd for 14 days; type: functional
HT-29 [12] = assay: Cytotoxicity against human HT-29 cells after 4 days; type: functional, cell-based; conditions: HT-29, 96 h
[13] = Half life in cynomolgus monkey at 1.5 mg/kg, po; type: ADME, organism-based, Macaca fascicularis; design: dose 1.5 mg/kg, route oral; conditions: in vivo
[14] = biological target: Voltage-gated inwardly rectifying potassium channel KCNH2 (Homo sapiens, UniProt Q12809); assay: Inhibition of human ERG
[15] = Genotoxicity in Salmonella Typhimurium by Ames test; type: toxicity; conditions: salmonella enterica subsp. enterica serovar typhimurium
[16] = Half life in cynomolgus monkey at 3 mg/kg, po; type: ADME, organism-based, Macaca fascicularis; design: dose 3 mg/kg, route oral; conditions: in vivo
[17] = Cmax in cynomolgus monkey at 3 mg/kg, po; type: ADME, organism-based, Macaca fascicularis; design: dose 3 mg/kg, route oral; conditions: in vivo
[18] = AUC (infinity) in cynomolgus monkey at 1.5 mg/kg, po; type: ADME, organism-based, Macaca fascicularis; design: time infinity, dose 1.5 mg/kg, route oral; conditions: plasma
[19] = Antitumor activity against human H441 cells expressing Kras G12V mutant xenografted in CAnN.Cg-Foxn1 nu/CrlCrlj mouse assessed as tumor regression at maximum tolerable dose administered as po qd for 14 days; type: functional, NCI-H441
HT-29 [20] = assay: Antitumor activity against human HT-29 cells expressing b-Raf V600E mutant xenografted in CAnN.Cg-Foxn1 nu/CrlCrlj mouse assessed as tumor regression at maximum tolerable dose administered as po qd for 14 days; type: functional
Cytochrome P450 3A4 = Cytochrome P450 3A4 (Homo sapiens, UniProt P08684); assay: Inhibition of CYP3A4; type: ADME
[21] = MRT (infinity) in cynomolgus monkey at 3 mg/kg, po; type: ADME, organism-based, Macaca fascicularis; design: dose 3 mg/kg, route oral; conditions: in vivo
[22] = Cmax in cynomolgus monkey at 1.5 mg/kg, po; type: ADME, organism-based, Macaca fascicularis; design: dose 1.5 mg/kg, route oral; conditions: in vivo
PANC-1 = assay: Antitumor activity against human PANC1 cells expressing Kras […] mutant xenografted in CAnN.Cg-Foxn1 nu/CrlCrlj mouse assessed as tumor regression at maximum tolerable dose administered as po qd for 14 days; type: functional
[23] = Tmax in cynomolgus monkey at 1.5 mg/kg, po; type: ADME, organism-based, Macaca fascicularis; design: dose 1.5 mg/kg, route oral; conditions: in vivo
[24] = MRT (infinity) in cynomolgus monkey at 1.5 mg/kg, po; type: ADME, organism-based, Macaca fascicularis; design: dose 1.5 mg/kg, route oral; conditions: in vivo
[25] = Tmax in cynomolgus monkey at 3 mg/kg, po; type: ADME, organism-based, Macaca fascicularis; design: dose 3 mg/kg, route oral; conditions: in vivo
[26] = AUC (infinity) in cynomolgus monkey at 3 mg/kg, po; type: ADME, organism-based, Macaca fascicularis; design: time infinity, dose 3 mg/kg, route oral; conditions: plasma
[27] = Solubility in 50 mM phosphate buffer at pH 6.5 after 2 hrs; type: physicochemical

Sequence of Voltage-gated inwardly rectifying potassium channel KCNH2 (Q12809 whole entry): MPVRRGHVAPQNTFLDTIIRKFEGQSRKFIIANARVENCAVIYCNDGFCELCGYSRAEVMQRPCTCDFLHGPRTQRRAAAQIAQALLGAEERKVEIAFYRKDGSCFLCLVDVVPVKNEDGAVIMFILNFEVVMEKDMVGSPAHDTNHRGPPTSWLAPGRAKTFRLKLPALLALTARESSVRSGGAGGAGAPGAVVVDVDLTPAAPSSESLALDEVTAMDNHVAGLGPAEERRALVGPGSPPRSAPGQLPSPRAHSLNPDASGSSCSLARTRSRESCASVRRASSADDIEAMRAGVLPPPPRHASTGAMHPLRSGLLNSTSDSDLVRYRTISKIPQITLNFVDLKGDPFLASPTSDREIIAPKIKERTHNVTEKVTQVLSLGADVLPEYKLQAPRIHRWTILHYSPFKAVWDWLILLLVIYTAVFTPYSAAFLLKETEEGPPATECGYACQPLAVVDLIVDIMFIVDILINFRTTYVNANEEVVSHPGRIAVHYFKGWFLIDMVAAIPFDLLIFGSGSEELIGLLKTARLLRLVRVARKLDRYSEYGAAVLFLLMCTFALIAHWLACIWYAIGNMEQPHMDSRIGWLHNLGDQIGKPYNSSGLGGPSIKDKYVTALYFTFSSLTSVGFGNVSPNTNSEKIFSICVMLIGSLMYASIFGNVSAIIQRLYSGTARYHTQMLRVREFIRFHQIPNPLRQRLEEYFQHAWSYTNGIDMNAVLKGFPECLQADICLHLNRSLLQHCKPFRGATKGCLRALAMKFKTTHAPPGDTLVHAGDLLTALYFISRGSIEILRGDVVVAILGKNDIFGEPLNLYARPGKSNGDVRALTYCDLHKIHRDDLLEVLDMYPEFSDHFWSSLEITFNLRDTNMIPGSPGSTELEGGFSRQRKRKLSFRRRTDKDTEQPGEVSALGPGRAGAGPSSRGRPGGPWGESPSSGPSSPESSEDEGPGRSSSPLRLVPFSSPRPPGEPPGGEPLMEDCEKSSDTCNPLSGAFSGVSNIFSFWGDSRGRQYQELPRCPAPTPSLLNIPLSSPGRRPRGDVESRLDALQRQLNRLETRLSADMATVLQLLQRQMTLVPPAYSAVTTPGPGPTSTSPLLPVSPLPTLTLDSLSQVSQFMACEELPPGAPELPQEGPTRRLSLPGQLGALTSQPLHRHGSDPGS
Sequence of Cytochrome P450 3A4 (P08684 whole entry): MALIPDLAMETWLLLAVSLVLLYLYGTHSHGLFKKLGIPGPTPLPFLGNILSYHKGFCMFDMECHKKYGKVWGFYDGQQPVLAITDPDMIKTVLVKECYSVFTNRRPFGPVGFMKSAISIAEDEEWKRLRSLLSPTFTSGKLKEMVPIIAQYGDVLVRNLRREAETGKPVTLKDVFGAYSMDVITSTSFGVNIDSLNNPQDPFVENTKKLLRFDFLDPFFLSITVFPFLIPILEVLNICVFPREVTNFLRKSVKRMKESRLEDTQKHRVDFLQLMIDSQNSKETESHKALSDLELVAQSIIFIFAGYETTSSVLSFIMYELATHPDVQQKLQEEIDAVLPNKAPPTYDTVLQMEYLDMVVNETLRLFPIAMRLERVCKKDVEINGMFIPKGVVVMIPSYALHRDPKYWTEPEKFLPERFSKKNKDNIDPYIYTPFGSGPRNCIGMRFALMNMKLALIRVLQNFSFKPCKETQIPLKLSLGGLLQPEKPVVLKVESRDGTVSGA

## O=C(NOC[C@H](O)CO)c1ccc(F)c(F)c1Nc1ccc(I)cc1F [MIRDAMETINIB]
[1]
  half-life: 5.5 h
[2]
  Tmax: 1.1 h
[3]
  Cmax: 1700 ng/mL
Brain
  inhibition: Active
HT-29 [4]
  inhibition: Active
[5]
  MRT inf: 7.3 h
[6]
  AUC(0-inf): 7900 ng·h/mL
Cynomolgus monkey
  Stability: Stable

## O=C(NOCCO)c1cc(/C=N\OCCO)c(F)c(F)c1Nc1ccc(I)cc1F
[7]
  MTD: 12.5 mg/kg
[8]
  half-life at 1 µM: > 6 h
QG-56
  pIC50: 8.22
[9]
  pIC50: 7.82
[10]
  half-life at 1 µM: > 6 h
HT-29 [11]
  TGI: 95%
HT-29 [12]
  pIC50: 8.62

## C#Cc1ccc(Nc2c(C(=O)NOCCO)cc(/C=N/OCCO)c(F)c2F)c(F)c1
[7]
  MTD: > 200 mg/kg
[8]
  half-life at 1 µM: 1.33 h
QG-56
  pIC50: 6.80
[9]
  pIC50: 6.63
[10]
  half-life at 1 µM: 2.25 h
HT-29 [11]
  TGI: 82%
HT-29 [12]
  pIC50: 6.82

## O=C(NOCCO)c1cc(/C=N/OCCO)c(F)c(F)c1Nc1ccc(I)cc1F
[7]
  MTD: 100 mg/kg
[8]
  half-life at 1 µM: 1.08 h
QG-56
  pIC50: 6.80
[9]
  pIC50: 7.00
[10]
  half-life at 1 µM: 3.95 h
HT-29 [11]
  TGI: 82%
HT-29 [12]
  pIC50: 7.10

## CC(C)(O)CO/N=C/c1cc(C(=O)NOCCO)c(Nc2ccc(I)cc2F)c(F)c1F
[7]
  MTD: 100 mg/kg
[8]
  half-life at 1 µM: > 6 h
QG-56
  pIC50: 6.89
[9]
  pIC50: 7.43
[10]
  half-life at 1 µM: > 6 h
HT-29 [11]
  TGI: 85%
HT-29 [12]
  pIC50: 7.40

## O=C(NOCCO)c1cc(CN2OCCCC2=O)c(F)c(F)c1Nc1ccc(I)cc1F [RO-4987655]
[13]
  half-life: 6.6 h
[1]
  half-life: 5 h
[14]
  inhibition (INH): Not Active
[15]
  Activity: Non-toxic
[16]
  half-life: 6 h
[17]
  Cmax: 1000 ng/mL
[8]
  half-life at 1 µM: 1.93 h
[2]
  Tmax: 1.5 h
[3]
  Cmax: 2100 ng/mL
Brain
  inhibition: inactive
HT-29 [4]
  inhibition: Active
[5]
  MRT inf: 7.3 h
[6]
  AUC(0-inf): 10400 ng·h/mL
[18]
  AUC(0-inf): 2200 ng·h/mL
[19]
  Activity: 70%
HT-29 [20]
  Activity: 70%
Cytochrome P450 3A4
  pIC50: < 4.00
[21]
  MRT inf: 8.8 h
[10]
  half-life at 1 µM: > 6 h
[22]
  Cmax: 400 ng/mL
PANC-1
  Activity: 70%
[23]
  Tmax: 1.3 h
[24]
  MRT inf: 8.4 h
[25]
  Tmax: 2.5 h
[26]
  AUC(0-inf): 7400 ng·h/mL

## O=C(NOCCO)c1cc(CNOCCO)c(F)c(F)c1Nc1ccc(I)cc1F
[7]
  MTD: 100 mg/kg
[8]
  half-life at 1 µM: > 6 h
[10]
  half-life at 1 µM: 2.13 h

## O=C(NOCCO)c1cc(COCCO)c(F)c(F)c1Nc1ccc(I)cc1F
[7]
  MTD: 50 mg/kg
[8]
  half-life at 1 µM: > 6 h
[10]
  half-life at 1 µM: > 6 h

## CC(=O)NCCO/N=C/c1cc(C(=O)NOCCO)c(Nc2ccc(I)cc2F)c(F)c1F
[7]
  MTD: > 200 mg/kg
[8]
  half-life at 1 µM: > 6 h
QG-56
  pIC50: 6.70
[9]
  pIC50: 7.32
[10]
  half-life at 1 µM: > 6 h
HT-29 [11]
  TGI: 99%
HT-29 [12]
  pIC50: 7.07

## CS(=O)(=O)CCO/N=C/c1cc(C(=O)NOCCO)c(Nc2ccc(I)cc2F)c(F)c1F
[7]
  MTD: > 200 mg/kg
[27]
  solubility at 2 h: 1 µM (≈ 0.601 µg/mL)
[8]
  half-life at 1 µM: 1.5 h
QG-56
  pIC50: 7.62
[9]
  pIC50: 7.17
[10]
  half-life at 1 µM: > 6 h
HT-29 [11]
  TGI: 98%
HT-29 [12]
  pIC50: 7.57

## O=C(NOCCO)c1cc(CN2CCCC2=O)c(F)c(F)c1Nc1ccc(I)cc1F
[27]
  solubility at 2 h: 156 µM (≈ 85.7 µg/mL)
[8]
  half-life at 1 µM: 3.08 h
QG-56
  pIC50: 7.24
[9]
  pIC50: 7.07
[10]
  half-life at 1 µM: 2.07 h
HT-29 [12]
  pIC50: 7.70

## O=C(NOCCO)c1cc(CN2OCCOC2=O)c(F)c(F)c1Nc1ccc(I)cc1F
[27]
  solubility at 2 h: 57 µM (≈ 32.3 µg/mL)
[8]
  half-life at 1 µM: 0.633 h
QG-56
  pIC50: 7.25
[9]
  pIC50: 7.38
[10]
  half-life at 1 µM: 2.1 h
HT-29 [12]
  pIC50: 7.77

## O=C(NOCCO)c1cc(CN2CCOC2=O)c(F)c(F)c1Nc1ccc(I)cc1F
[27]
  solubility at 2 h: 284 µM (≈ 157 µg/mL)
[8]
  half-life at 1 µM: > 6 h
QG-56
  pIC50: 5.51
[9]
  pIC50: < 6.60
[10]
  half-life at 1 µM: > 6 h
HT-29 [12]
  pIC50: 6.25

## O=C(NOCCO)c1cc(CN2OCCC2=O)c(F)c(F)c1Nc1ccc(I)cc1F
[7]
  MTD: 12.5 mg/kg
[8]
  half-life at 1 µM: > 6 h
[10]
  half-life at 1 µM: > 6 h

## CON(Cc1cc(C(=O)NOCCO)c(Nc2ccc(I)cc2F)c(F)c1F)C(C)=O
[7]
  MTD: 25 mg/kg
[27]
  solubility at 2 h: 116 µM (≈ 64.2 µg/mL)
[8]
  half-life at 1 µM: 1.07 h
[10]
  half-life at 1 µM: 0.6 h
